Assays:
[1] = Ring tensiometer
[2] = xn = mol fraction of the nth substance listed; conditions: Ring tensiometer

CC(C)(C)O [2-methylpropan-2-ol]
[1]
Conditions	surface tension liquid-gas [mN/m]
298.15 K	19.96
308.15 K	19.26
318.15 K	18.35
328.15 K	17.62

CC(C)(C)O [2-methylpropan-2-ol] + C[S+](C)[O-]
surface tension liquid-gas [mN/m], [2]
Conditions	298.15 K	308.15 K	318.15 K	328.15 K
x1 = 0.0183	39.25	38.29	37.56	36.51
x1 = 0.0361	36.85	36.01	35.32	34.28
x1 = 0.0695	34.2	33.39	32.73	31.66
x1 = 0.1008	32.36	31.54	30.78	29.89
x1 = 0.1301	31.04	30.17	29.53	28.54
x1 = 0.1832	29.19	28.35	27.71	26.83
x1 = 0.2302	28.08	27.23	26.53	25.71
x1 = 0.3096	26.31	25.51	24.96	24.17
x1 = 0.4022	24.98	24.21	23.69	22.86
x1 = 0.4928	23.72	23.02	22.37	21.63
x1 = 0.5736	22.87	22.01	21.36	20.63
x1 = 0.6322	22.19	21.4	20.85	20.06
x1 = 0.6767	21.72	21.02	20.47	19.71
x1 = 0.7115	21.51	20.85	20.18	19.38
x1 = 0.8511	20.64	19.92	19.03	18.26
x1 = 1	19.96	19.26	18.35	17.62

CC(C)CCO [3-methylbutan-1-ol]
[1]
Conditions	surface tension liquid-gas [mN/m]
298.15 K	22.83
308.15 K	22.02
318.15 K	21.3
328.15 K	20.49

CC(C)CCO [3-methylbutan-1-ol] + C[S+](C)[O-]
surface tension liquid-gas [mN/m], [2]
Conditions	298.15 K	308.15 K	318.15 K	328.15 K
x1 = 0.0033	41.6	40.66	39.65	38.38
x1 = 0.0065	40.98	40.12	39.19	37.83
x1 = 0.0129	40.07	39.09	38.42	37.08
x1 = 0.0255	38.5	37.78	37.05	35.84
x1 = 0.0377	37.32	36.8	35.85	34.87
x1 = 0.0783	34.25	33.78	32.99	32.37
x1 = 0.1307	31.96	31.49	30.9	30.18
x1 = 0.1774	30.51	30	29.39	28.79
x1 = 0.2572	28.72	28.06	27.39	26.8
x1 = 0.323	27.65	27.06	26.37	25.6
x1 = 0.378	26.87	26.28	25.59	24.91
x1 = 0.4456	26	25.48	24.78	23.98
x1 = 0.4999	25.54	24.81	24.06	23.39
x1 = 0.5578	25	24.23	23.51	22.81
x1 = 0.6036	24.54	23.78	22.99	22.19
x1 = 0.6491	24.14	23.36	22.7	21.82
x1 = 0.6851	23.81	23.11	22.46	21.51
x1 = 0.786	23.42	22.69	22.01	21.16
x1 = 0.8875	23.16	22.41	21.64	20.89
x1 = 0.9511	22.95	22.2	21.46	20.68
x1 = 1	22.83	22.02	21.3	20.49

C[S+](C)[O-] [dimethyl sulfoxide]
[1]
Conditions	surface tension liquid-gas [mN/m]
298.15 K	42.28
308.15 K	41.18
318.15 K	40.14
328.15 K	38.93

C[S+](C)[O-] [dimethyl sulfoxide] + CC(C)(C)O
[2], x2 = 0
Conditions	surface tension liquid-gas [mN/m]
298.15 K	42.28
308.15 K	41.18
318.15 K	40.14
328.15 K	38.93

C[S+](C)[O-] [dimethyl sulfoxide] + CC(C)CCO
[2], x2 = 0
Conditions	surface tension liquid-gas [mN/m]
298.15 K	42.28
308.15 K	41.18
318.15 K	40.14
328.15 K	38.93

From the NIST ThermoML archive (doi:10.1016/j.jct.2014.06.005)
